Data from patent US20250057813A1, “APOPTOSIS RELATED PROTEIN IN THE TGF-BETA SIGNALING PATHWAY (ARTS) MIMETIC COMPOUNDS, COMPOSITIONS, METHODS AND USES THEREOF IN INDUCTION OF APOPTOSIS” (Carmel-Haifa University Economic Corporation Ltd., priority 2022, published 2025).
Peptide text beside a SMILES is read from it. * marks the point of attachment. Cbz = O=C(OCc1ccccc1)*

Assays:
[1] = system: WT MEFs and Sept4/ARTS KO MEFs cells; assay: Western blot of WT MEFs and Sept4/ARTS KO MEFs; assay type: cell-based, mouse; settings: 20 or 40 μM, 24 hours
Procedure: (§1) Cells were lysed in whole-cell extract buffer [25 mM HEPES, pH 7.7, […], 1.5 mM MgCl2, 0.2 mM EDTA, 0.1% Triton X-100, 100 μg/ml phenylmethylsulfonyl fluoride (PMSF) and protease inhibitor cocktail (Roche, 1:100 dilution)] and placed on ice for 30 min (vortexing once after 15 min). After 30 minutes, the samples were centrifuged at 13,000×g for 10 minutes at 4° C. The supernatants containing total protein were measured for protein concentration using Bio-Rad Protein Assay Dye Reagent Concentrate Kit. 40 to […] was separated by sodium dodecyl sulfate-polyacrylamide gel electrophoresis (SDS-PAGE) (12% or 7.5%), followed by transfer to a nitrocellulose membrane. The membranes were blocked with 5% (w/v) non-fat dried skimmed milk powder in PBS supplemented with 0.05% Tween-20 (PBS-T) for 1 h at RT. Next, primary antibodies were added at 4° C. overnight or for 2 h at room temperature. Membranes were then incubated with secondary antibody for 1 h at RT and washed three times for 15 min each with PBS-T. Western Bright ECL (Advansta) was added to the membrane for 30-60 s and analyzed using Image Quant LAS-4000 (GE Healthcare Life Sciences) and Image Quant LAS-4000 software (GE Healthcare Life Sciences).

[2] = system: A375 human melanoma cells; assay: SDS PAGE and Western blot analysis of A375 cells; assay type: cell-based
Procedure: (§2) The cells were lysed in WCE (whole-cell extract) buffer [25 mM Hepes, pH 7.7, 0.3M NaCl, 1.5 mM MgCl2, 0.2 mM EDTA, 0.1% Triton X-100, 100[μg/ml PMSF and protease inhibitor cocktail (Roche, 1:100 dilution)]. 100 μg of total cell protein, measured with the Bio-Rad Protein Assay kit, were separated by SDS-PAGE (12%) followed by transfer for 2 h on to a nitrocellulose membrane. The membrane was blocked with 5% (w/v) non-fat dried skimmed milk powder in PBS supplemented with 0.05% Tween20 (PBS-T) for 1 hour at room temperature (R.T). Membrane was then probed with primary antibody at 4° C. overnight. Next, the membrane was incubated with the appropriate HRP-conjugated secondary antibody, for 1 hour at R.T. and washed 15 min ×3 with PBS-T. WesternBright ECL (Advansta) was added to the membrane for 2 min and analyzed using ImageQuant LAS-4000 analyzer (GE Healthcare Life Sciences) & “ImageQuant LAS-4000” software (GE Healthcare Life Sciences). Densitometry analysis was performed using ImageQuant total lab 7 (GE Healthcare Life Sciences), image analysis software.
as §1

[3] = system: CCRF-CEM (acute lymphoblastic leukemia) cell line; assay: Western blot analysis of CCRF-CEM; assay type: cell-based; design: cleaved PARP and cleaved Caspase 3: dose or concentration left out as unconfirmed
Procedure: as §2

[4] = system: HL-60 leukemia cell line; assay: Western blot analysis of HL-60; assay type: cell-based; settings: 1 μM ABT199, 24 hrs
Procedure: as §2

[5] = system: Sept4/ARTS KO MEFs, shARTS HeLa, A-375, WT MEFs, WT HeLa; assay: Western blot of cell lines with different amounts of endogenous ARTS; assay type: cell-based; settings: ABT-199 alone, 24 hrs
Procedure: as §2

[6] = system: p53-ARTS complex; assay: BiFC assay in WT MEFs (VN-p53 and VC-ARTS); assay type: cell-based; settings: 200 μM Etoposide
Text: The split-Venus BiFC system was used to evaluate close proximity indicating possible direct binding between pairs of proteins. The proteins were fused either to the N-terminal part of the VenusYFP (yellow fluorescence protein) (VN) or the C-terminal domain (VC). All Venus fragments were fused to the C-terminal sequences of these proteins. The Jun and bFos pair was used as a positive control (p.c.), and the Jun and bFosdeltaZTP pair was used as a negative control (n.c.). A vector encoding dsRed was used as a transfection efficiency marker.

[7] = system: sept4/ARTS KO MEFs; assay: Western blot of Sept4/ARTS KO MEFs treated with proteasome inhibitor; assay type: cell-based, mouse; settings: MG-132, 20 μM for 6 hours
Procedure: as §1

COC(=O)c1[nH]c2ccc(Cl)cc2c1NC(=O)CN1CCN(Cc2ccccc2)CC1 [A4, 3-[2-(4-Benzyl-piperazin-1-yl)-acetylamino]-5-chloro-1H-indole-2-carboxylic acid methyl ester]
XIAP levels [1]: downregulates
p53 levels [1]: upregulate

CC1(C)CCC(CN2CCN(c3ccc(C(=O)NS(=O)(=O)c4ccc(NCC5CCOCC5)c([N+](=O)[O-])c4)c(Oc4cnc5[nH]ccc5c4)c3)CC2)=C(c2ccc(Cl)cc2)C1 [ABT-199, 4-[4-[[2-(4-Chlorophenyl)-4,4-dimethyl-1-cyclohexen-1-yl]methyl]-1-piperazinyl]-N-[[3-nitro-4-[[(tetrahydro-2H-pyran-4-yl)methyl]amino]phenyl]sulfonyl]-2-(1H-pyrrolo[2,3-b]pyridin-5-yloxy)benzamide, reference compound]
ARTS levels ([2]; 5 μM ABT-199, 24 hrs): upregulated
apoptotic markers, cleaved PARP and cleaved Caspase 3 ([2]; 5 μM ABT-199, 24 hrs): upregulated
BCL-2 levels ([2]; 10 μM ABT-199, 24 hrs): upregulated
Bcl-2 levels ([2]; ABT-199 alone, 2, 6 and 24 hrs): upregulated
cleaved PARP and cleaved Caspase 3 ([3]; ABT-199, 24 hrs): upregulated
cleaved Caspase 3 ([3]; ABT-199 alone, 24 hrs): increased
cleaved PARP and cleaved Caspase 3 [4]: upregulated
ARTS levels [5]: upregulated

COc1cc([C@@H]2c3cc4c(cc3[C@@H](O[C@@H]3O[C@@H]5CO[C@@H](C)O[C@H]5[C@H](O)[C@H]3O)[C@H]3COC(=O)[C@H]23)OCO4)cc(OC)c1O [Etoposide]
formation of p53-ARTS complex [6]: promotes

CC(C)C[C@@H](C=O)NC(=O)[C@H](CC(C)C)NC(=O)[C@H](CC(C)C)NC(=O)OCc1ccccc1 [MG-132] (Cbz-Leu-Leu-Leu-aldehyde)
p53 protein levels [7]: accumulation
